Results reported in patent US4771050A, “Thiolactam-n-acetic acid derivatives” (Takeda Chemical Industries, Ltd., priority 1986, dated 1988).

System: sorbitol accumulation in sciatic nerves of streptozocin diabetic rats
Assay: Inhibition of sorbitol accumulation in the tissue of experimentally induced diabetic rat
Type: in vivo, rat (Spraque-Dawley)
Conditions: 30 mg/kg orally twice a day for 2 days; sciatic nerve; untreated control group = 100
Protocol: Spraque-Dawley rats (male, 5-7-week-old, 5 animals per group) were fasted for 18 hours, and received injection of 70 mg/kg of streptozocin (Cal Biochem Co.) into the caudal vein under anesthesia with ether, so that diabetic rats were obtained. From immediately after the injection of streptozocin these rats were given orally the test compound of 50 mg/kg or 30 mg/kg in the form of 5% gum arabic suspension twice a day (at 10 a.m. and 5 p.m.) for 2 days. During this period the rats were allowed to take CE-2 diet (Clea Japan, Inc.) and water ad libitum. In the morning on the 3rd day (9 a.m.) the rats were killed (decapitation and venesection), and immediately the sciatic nerves were isolated, from which sorbitol was extracted according to the method of M. J. Peterson et al. described in Metabolism, 28, 456 (1979) and the sorbitol level was determined by the enzymatic method of P.S. Clements et al. in Science, 166, 1007 (1969).

Structure (SMILES)	sorbitol accumulation [%]
CC(C)C1Oc2c(C3CCCCC3)cccc2N(CC(=O)O)C1=S (stereo not drawn) [Example 20, 8-cyclohexyl-3,4-dihydro-2-isopropyl-3-thioxo2H-1,4-benzoxazine-4-acetic acid]	25
CC(C)C1Oc2ccc(F)cc2N(CC(=O)O)C1=S (stereo not drawn) [Example 2, 6-fluoro-3,4-dihydro-2-isopropyl-3-thioxo-2H-1,4-benzoxazine-4-acetic acid]	33
CC(C)C1Oc2cc(F)ccc2N(CC(=O)O)C1=S (stereo not drawn) [Example 17, 7-fluoro-3,4-dihydro-2isopropyl3-thioxo-2H-1,4-benzoxazine-4-acetic acid]	62
COc1cccc2c1OC(C(C)C)C(=S)N2CC(=O)O (stereo not drawn) [Example 5, 3,4-dihydro-2-isopropyl-8-methoxy-3-thioxo-2H-1,4-benzoxazine-4-acetic acid]	29
CCc1cccc2c1OC(C(C)C)C(=S)N2CC(=O)O (stereo not drawn) [Example 13, 8-ethyl-3,4-dihydro-2-isopropyl-3-thioxo-2H-1,4-benzoxazine-4-acetic acid]	35
COc1ccc2c(c1)OC(C(C)C)C(=S)N2CC(=O)O (stereo not drawn) [Example 7, 3,4-dihydro-2-isopropyl-7-methoxy-3-thioxo-2H-1,4-benzoxazine-4-acetic acid]	27

Same assay, conditions: 50 mg/kg orally twice a day for 2 days; sciatic nerve; untreated control group = 100

Structure (SMILES)	sorbitol accumulation [%]
O=C(O)CN1C(=S)CSc2ccccc21 [Control B, 3,4dihydro-3-thioxo-2H--1,4benzothiazine-4-acetic acid, reference compound]	78
CC(C)C1Oc2c(Cl)cccc2N(CC(=O)O)C1=S (stereo not drawn) [Example 3, 8-chloro-3,4-dihydro-2-isopropyl-3-thioxo-2H-1,4-benzoxazine-4-acetic acid]	23
CC(C)C1Oc2ccc(F)cc2N(CC(=O)O)C1=S (stereo not drawn) [Example 2, 6-fluoro-3,4-dihydro-2-isopropyl-3-thioxo-2H-1,4-benzoxazine-4-acetic acid]	12
COc1cccc2c1OC(C(C)C)C(=S)N2CC(=O)O (stereo not drawn) [Example 5, 3,4-dihydro-2-isopropyl-8-methoxy-3-thioxo-2H-1,4-benzoxazine-4-acetic acid]	11
CC1Sc2ccccc2N(CC(=O)O)C1=S (stereo not drawn) [Control C, 3,4dihydro-2-methyl-3-thioxo-2H--1,4benzothiazine-4-acetic acid, reference compound]	71

Same assay, conditions: vs control compounds A, B, C

Structure (SMILES)	inhibition of sorbitol accumulation in vivo compared with control compounds (in words)
CC(C)C1Oc2ccc(F)cc2N(CC(=O)O)C1=S (stereo not drawn) [Example 2, 6-fluoro-3,4-dihydro-2-isopropyl-3-thioxo-2H-1,4-benzoxazine-4-acetic acid]	The difference is particularly evident

Target: T1, aldose reductase from human placenta (Homo sapiens, UniProt P15121)
T1 construct: Partially purified aldose reductase from human placenta; from tissue; host or cells: human placenta
Assay: Aldose reductase inhibition (in vitro study)
Type: biochemical
Conditions: 10^-6 M
From the text: 1. Aldose reductase inhibition (in vitro study)
Partially purified aldose reductase from human placenta was used for the test of aldose reductase inhibitory effect according to the method of S. Hayman et al. described in Journal of Biological Chemistry, 240, 877 (1965) or the method of J. H. Kinoshita et al. described in Metabolism, 28, Supplement 1, 462 (1979).

Structure (SMILES)	inhibition at 1 µM [%]
O=C(O)CN1C(=S)CSc2ccccc21 [Control B, 3,4dihydro-3-thioxo-2H--1,4benzothiazine-4-acetic acid, reference compound]	43.1
CC(C)C1Oc2ccc(F)cc2N(CC(=O)O)C1=S (stereo not drawn) [Example 2, 6-fluoro-3,4-dihydro-2-isopropyl-3-thioxo-2H-1,4-benzoxazine-4-acetic acid]	43.9
CC1Sc2ccccc2N(CC(=O)O)C1=S (stereo not drawn) [Control C, 3,4dihydro-2-methyl-3-thioxo-2H--1,4benzothiazine-4-acetic acid, reference compound]	48.7

Results, then the molecule that gave them:

inhibition at 1 µM [%]	Structure (SMILES)
48.9	CC(C)C1Oc2c(Cl)cccc2N(CC(=O)O)C1=S (stereo not drawn) [Example 3, 8-chloro-3,4-dihydro-2-isopropyl-3-thioxo-2H-1,4-benzoxazine-4-acetic acid]
38.4	CC(C)C1Oc2c(C3CCCCC3)cccc2N(CC(=O)O)C1=S (stereo not drawn) [Example 20, 8-cyclohexyl-3,4-dihydro-2-isopropyl-3-thioxo2H-1,4-benzoxazine-4-acetic acid]
45.7	CC(C)C1Oc2cc(F)ccc2N(CC(=O)O)C1=S (stereo not drawn) [Example 17, 7-fluoro-3,4-dihydro-2isopropyl3-thioxo-2H-1,4-benzoxazine-4-acetic acid]
48.1	COc1cccc2c1OC(C(C)C)C(=S)N2CC(=O)O (stereo not drawn) [Example 5, 3,4-dihydro-2-isopropyl-8-methoxy-3-thioxo-2H-1,4-benzoxazine-4-acetic acid]
46.8	CCc1cccc2c1OC(C(C)C)C(=S)N2CC(=O)O (stereo not drawn) [Example 13, 8-ethyl-3,4-dihydro-2-isopropyl-3-thioxo-2H-1,4-benzoxazine-4-acetic acid]
50	COc1ccc2c(c1)OC(C(C)C)C(=S)N2CC(=O)O (stereo not drawn) [Example 7, 3,4-dihydro-2-isopropyl-7-methoxy-3-thioxo-2H-1,4-benzoxazine-4-acetic acid]

Same assay, conditions: 10^-7 M

Structure (SMILES)	inhibition at 0.1 µM [%]
O=C(O)CN1C(=S)CSc2ccccc21 [Control B, 3,4dihydro-3-thioxo-2H--1,4benzothiazine-4-acetic acid, reference compound]	15.7
CC(C)C1Oc2ccc(F)cc2N(CC(=O)O)C1=S (stereo not drawn) [Example 2, 6-fluoro-3,4-dihydro-2-isopropyl-3-thioxo-2H-1,4-benzoxazine-4-acetic acid]	8.7
CC1Sc2ccccc2N(CC(=O)O)C1=S (stereo not drawn) [Control C, 3,4dihydro-2-methyl-3-thioxo-2H--1,4benzothiazine-4-acetic acid, reference compound]	19.6

The next lines start with the values.

inhibition at 0.1 µM [%]	Structure (SMILES)
8.9	CC(C)C1Oc2c(Cl)cccc2N(CC(=O)O)C1=S (stereo not drawn) [Example 3, 8-chloro-3,4-dihydro-2-isopropyl-3-thioxo-2H-1,4-benzoxazine-4-acetic acid]
4.6	CC(C)C1Oc2c(C3CCCCC3)cccc2N(CC(=O)O)C1=S (stereo not drawn) [Example 20, 8-cyclohexyl-3,4-dihydro-2-isopropyl-3-thioxo2H-1,4-benzoxazine-4-acetic acid]
2.6	CC(C)C1Oc2cc(F)ccc2N(CC(=O)O)C1=S (stereo not drawn) [Example 17, 7-fluoro-3,4-dihydro-2isopropyl3-thioxo-2H-1,4-benzoxazine-4-acetic acid]
17.3	COc1cccc2c1OC(C(C)C)C(=S)N2CC(=O)O (stereo not drawn) [Example 5, 3,4-dihydro-2-isopropyl-8-methoxy-3-thioxo-2H-1,4-benzoxazine-4-acetic acid]
14.9	CCc1cccc2c1OC(C(C)C)C(=S)N2CC(=O)O (stereo not drawn) [Example 13, 8-ethyl-3,4-dihydro-2-isopropyl-3-thioxo-2H-1,4-benzoxazine-4-acetic acid]
14.9	COc1ccc2c(c1)OC(C(C)C)C(=S)N2CC(=O)O (stereo not drawn) [Example 7, 3,4-dihydro-2-isopropyl-7-methoxy-3-thioxo-2H-1,4-benzoxazine-4-acetic acid]

System: washed rat platelets
Assay: Inhibitory action on platelet aggregation (washed rat platelets)
Type: cell-based, rat (Spraque-Dawley)
Conditions: Rattus norvegicus, Platelet, read-out: percent inhibition of aggregation, inducer ADP; 3 × 10^-4 M; Mean ± SD (N = 3)
Protocol: 3. Inhibitory action on platelet aggregation
Effect of 3,4-dihydro-2,8-diisopropyl-3-thioxo-2H-1,4-benzoxazine-4-acetic acid on platelet aggregation was examined using washed rat platelets.
Platelet rich plasma (PRP) was prepared by centrifuging the blood at 150 xg for 15 min at room temperature. To prepare washed platelets, the PRP was centrifuged at 1500 xg for 10 min and the precipitated platelets were resuspended in Tyrode's solution. The number of platelets used was 7×10^5 cells/mm^3. Platelet aggregation was measured by the turbidmetric method using an aggregometer (Nikko Bioscience, Model PAR-4M, Tokyo). The test compound dissolved in 10 μl of water was added to 250 μl of washed platelet suspension and incubated at 37° C. for 3 min before 10 μl of aggregating agents ([…] of collagen, Nikko Bioscience or 10 μM of ADP, Shigma, St. Louis, Mo., at the final concentration) was added.

Structure (SMILES)	inhibition at 300 µM [%]
COc1ccc2c(c1)c(CC(=O)O)c(C)n2C(=O)c1ccc(Cl)cc1 [Indomethacin, reference compound]	97.2 ± 6.4

Same assay, conditions: Rattus norvegicus, Platelet, read-out: percent inhibition of aggregation, inducer ADP; 10^-4 M; Mean ± SD (N = 3)

Structure (SMILES)	inhibition at 100 µM [%]
COc1ccc2c(c1)c(CC(=O)O)c(C)n2C(=O)c1ccc(Cl)cc1 [Indomethacin, reference compound]	102 ± 8.4

Same assay, conditions: Rattus norvegicus, Platelet, read-out: percent inhibition of aggregation, inducer collagen; 10^-4 M; Mean ± SD (N = 3)

Structure (SMILES)	inhibition at 100 µM [%]
COc1ccc2c(c1)c(CC(=O)O)c(C)n2C(=O)c1ccc(Cl)cc1 [Indomethacin, reference compound]	28.5 ± 1.9
